Source: publication PMC6268941, “The Binding Affinity and Molecular Basis of the Structure-Binding Relationship between Urinary Tamm-Horsfall Glycoprotein and Tumor Necrosis Factor-α” (Molecules, 2012)

Biological target: T1, THP-TNF-α (Tamm-Horsfall glycoprotein / tumor necrosis factor-α binding pair) (Homo sapiens, UniProt P01375+P07911)
T1 construct: recombinant human TNF-α (R&D Systems, 17 kDa); native THP purified from normal human urine (80-90 kDa)
Test: ELISA, monosaccharide inhibition of THP-TNF-α binding
Details: 10 µg sugar preincubated overnight at 4 °C with coated TNF-α or coated THP, then the other protein added; which partner holds the sugar is not resolved

T1 sequence (P01375 77-233, other chains not shown): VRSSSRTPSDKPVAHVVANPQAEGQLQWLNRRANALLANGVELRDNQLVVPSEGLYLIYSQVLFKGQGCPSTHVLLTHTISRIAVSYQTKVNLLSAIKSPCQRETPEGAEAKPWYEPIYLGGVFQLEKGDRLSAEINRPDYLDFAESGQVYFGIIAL

CC(=O)N[C@H]1C(O)O[C@H](CO)[C@H](O)[C@@H]1O (stereo partly drawn) [N-acetyl-galactosamine]
ELISA, monosaccharide inhibition of THP-TNF-α binding: mannose, GlcNAc, and GalNAc significantly suppressed THP-TNF-α binding

CC(=O)N[C@H]1C(O)O[C@H](CO)[C@@H](O)[C@@H]1O (stereo partly drawn) [N-acetyl-glucosamine]
ELISA, monosaccharide inhibition of THP-TNF-α binding: mannose, GlcNAc, and GalNAc significantly suppressed THP-TNF-α binding

CO[C@H]1O[C@H](CO)[C@@H](O)[C@H](O)[C@@H]1O [α-methyl-D-mannoside]
ELISA, monosaccharide inhibition of THP-TNF-α binding: mannose, GlcNAc, and GalNAc significantly suppressed THP-TNF-α binding
